Measurements taken from patent US6531584B1, “2'modified oligonucleotides” (ISIS Pharmaceuticals, Inc., priority 1990, dated 2003).
“Also recorded” adds a separate entry of the source. Strand notation (5' to 3'): a small letter for the sugar, then the base; units joined by * are phosphorothioate-linked, units joined directly phosphodiester-linked; [ ] holds rarer units or linkages, { } end groups; capitals alone tell only the bases. d = 2'-deoxy (DNA); m = 2'-O-methyl

How the values were obtained:
PKC-α mRNA = assay: Northern blot analysis of PKC-α mRNA levels; format: cell-based, human; conditions: FIGS. 3 to 5
Description: Oligonucleotides having SEQ ID NO:4 were synthesized as uniformly phosphorothioate chimeric oligonucleotides having a centered deoxy gap of varying lengths flanked by 2′-O-methylated regions. These oligonucleotides (500 nM concentration) were tested for effects on PKC-α mRNA levels by Northern blot analysis.

c-raf mRNA = assay: Northern blot analysis of c-raf mRNA expression in T24 cells; format: cell-based, human
Text: Chimeric oligonucleotides having SEQ ID NO:7 were designed using the Genbank c-raf sequence HUMRAFR (Genbank listing x03484), synthesized and tested for inhibition of c-raf mRNA expression in T24 bladder carcinoma cells using a Northern blot assay. These chimeric oligonucleotides have central “gap” regions of 6, 8 or 10 deoxynucleotides flanked by two regions of 2′-O-methyl modified nucleotides, and are shown in Table 10. Backbones were uniformly phosphorothioate. […] These oligonucleotides are preferred.
The human urinary bladder cancer cell line T24 was obtained from the American Type Culture Collection (Rockville, Md.). Cells were grown in McCoy's 5A medium with L-glutamine (GIBCO-BRL, Gaithersburg, Md.), supplemented with 10% heat-inactivated fetal calf serum and 50 U/ml each of penicillin and streptomycin. Cells were seeded on 100 mm plates. When they reached 70% confluency, they were treated with oligonucleotide. Plates were washed with 10 ml prewarmed PBS and 5 ml of OptiMEM reduced-serum medium containing 2.5 μl DOTMA. Oligonucleotide with lipofectin was then added to the desired concentration. After 4 hours of treatment, the medium was replaced with McCoy's medium. Cells were harvested 24 to 72 hours after oligonucleotide treatment and RNA was isolated using a standard CsCl purification method. [Kingston in Current Protocols in Molecular Biology, F. M. Ausubel, R. Brent, R. E. Kingston, D. D. Moore, J. A. Smith, J. G. Seidman and K. Strahl, Eds., John Wiley and Sons, New York.] Total RNA was isolated by centrifugation of cell lysates over a CsCl cushion. RNA samples were electrophoresed through 1.2% agarose-formaldehyde gels and transferred to hybridization. membranes by capillary diffusion over a 12-14 hour period. The RNA was cross-linked to the membrane by exposure to UV light in a Stratalinker (Stratagene, La Jolla, Calif.) and hybridized to random-primed ^32P-labeled c-raf cDNA probe (obtained from ATCC) or G3PDH probe as a control. RNA was quantitated using a Phosphorimager (Molecular Dynamics, Sunnyvale, Calif.).

[1] = system: mutant (activated) H-ras RNA; format: cell-based, human
ras mRNA = assay: Northern blot analysis of ras expression in T24 cells; format: cell-based, human; set-up: inhibition of ras expression / decrease of ras mRNA: concentration or dose not given beside the values; conditions: for inhibition of ras expression: T24 cells (activated codon-12); for inhibition of ras expression / decrease of ras mRNA: T24 cells, Northern blot
Description: (§1) The human urinary bladder cancer cell line T24 was obtained from the American Type Culture Collection (Rockville Md.). Cells were grown in McCoy's 5A medium with L-glutamine (GIBCO-BRL, Gaithersburg, Md.), supplemented with 10% heat-inactivated fetal calf serum and 50 U/ml each of penicillin and streptomycin. Cells were seeded on 100 mm plates. When they reached 70% confluency, they were treated with oligonucleotide. Plates were washed with 10 ml prewarmed PBS and 5 ml of OptiMEM (GIBCO) reduced-serum medium containing 2.5 μl DOTMA. Oligonucleotide was then added to the desired concentration. After 4 hours of treatment, the medium was replaced with McCoy's medium. Cells were harvested 48 hours after oligonucleotide treatment and RNA was isolated using a standard CsCl purification method. [Kingston in Current Protocols in Molecular Biology, F. M. Ausubel, R. Brent, R. E. Kingston, D. D. Moore, J. A. Smith, J. G. Seidman and K. Strahl, Eds., John Wiley and Sons, New York.] The human epithelioid carcinoma cell line HeLa 229 was obtained from the American Type Culture Collection (Bethesda, Md.). HeLa cells were maintained as monolayers on 6-well plates in Dulbecco's Modified Eagle's medium (DMEM) supplemented with 10% fetal bovine serum and 100 U/ml penicillin. Treatment with oligonucleotide and isolation of RNA were essentially as described above for T24 cells.
Northern hybridization: 10 μg of each RNA was electrophoresed on a 1.2% agarose/formaldehyde gel and transferred overnight to GeneBind 45 nylon membrane (Pharmacia LKB, Piscataway, N.J.) using standard methods. [Kingston in Current Protocols in Molecular Biology, F. M. Ausubel, R. Brent, R. E. Kingston, D. D. Moore, J. A. Smith, J. G. Seidman and K. Strahl, Eds., John Wiley and Sons, New York.] RNA was UV-crosslinked to the membrane. Double-stranded ^32P-labeled probes were synthesized using the Prime a Gene labeling kit (Promega, Madison, Wis.). The ras probe was a SalI-NheI fragment of a cDNA clone of the activated (mutant) H-ras mRNA having a GGC-to-GTC mutation at codon-12. The control probe was G3PDH. Blots were prehybridized for 15 minutes at 68° C. with the QuickHyb hybridization solution (Stratagene, La Jolla, Calif.). The heat-denatured radioactive probe (2.5×10^6 counts/2 ml hybridization solution) mixed with 100 μl of 10 mg/ml salmon sperm DNA was added and the membrane was hybridized for 1 hour at 68° C. The blots were washed twice for 15 minutes at room temperature in 2×SSC/0.1% SDS and once for 30 minutes at 60° C. with 0.1×SSC/0.1%SDS. Blots were autoradiographed and the intensity of signal was quantitated using an ImageQuant PhosphorImager (Molecular Dynamics, Sunnyvale, Calif.). Northern blots were first hybridized with the ras probe, then stripped by boiling for 15 minutes in 0.1×SSC/0.1%SDS and rehybridized with the control G3PDH probe to check for correct sample loading.

[2] = system: ras mRNA (wild-type H-ras codon-12); assay: Northern blot analysis of ras expression in HeLa cells; format: cell-based, human; conditions: HeLa cells (wild-type H-ras codon-12)
Description: as §1, with “The human epithelioid carcinoma cell line HeLa 229 was obtained from the American Type Culture Collection (Bethesda, Md.). HeLa cells were maintained as monolayers on 6-well plates in Dulbecco's Modified Eagle's medium (DMEM) supplemented with 10% fetal bovine serum and 100 U/ml penicillin. Treatment with oligonucleotide and isolation of RNA were essentially as described above for T24 cells.” left out
Northern hybridization: 10 μg of each RNA was electrophoresed on a 1.2% agarose/formaldehyde gel and transferred overnight to GeneBind 45 nylon membrane (Pharmacia LKB, Piscataway, N.J.) using standard methods. […] Blots were autoradiographed and the intensity of signal was quantitated using an ImageQuant PhosphorImager (Molecular Dynamics, Sunnyvale, Calif.). […]

T24 cancer cell = assay: Inhibition of proliferation of cancer cells; format: cell-based, human; conditions: 100 nM oligonucleotide concentration
Description: Cells were cultured and treated with oligonucleotide essentially as described in Example 27. Cells were seeded on 60 mm plates and were treated with oligonucleotide in the presence of DOTMA when they reached 70% confluency. Time course experiment: On day 1, cells were treated with a single dose of oligonucleotide at a final concentration of 100 nM. The growth medium was changed once on day 3 and cells were counted every day for 5 days, using a counting chamber. Dose-response experiment: Various concentrations of oligonucleotide (10, 25, 50, 100 or 250 nM) were added to the cells and cells were harvested and counted 3 days later. Oligonucleotides 2570, 3985 and 4690 were tested for effects on T24 cancer cell proliferation. EXAMPLE 29

[3] = system: RNA complement “Y” strand ribo(3′GAG CAU GGY AAG GCC AGG5′); assay: Base-pair specificity: single base mismatches and bulge, thermal melting; format: binding; conditions: single base-pair mismatches and a bulge
Description: The ability of the 2′-modified oligonucleotides to hybridize to their complementary RNA or DNA sequences was determined by thermal melting analysis. The RNA complement was synthesized from T7 RNA polymerase and a template-promoter of DNA synthesized with an Applied Biosystems, Inc. 380B RNA species was purified by ion exchange using FPLC (LKB Pharmacia, Inc.). Natural antisense oligonucleotides or those containing 2′-modifications at specific locations were added to either the RNA or DNA complement at stoichiometric concentrations and the absorbance (260 nm) hyperchromicity upon duplex to random coil transition was monitored using a Gilford Response II spectrophotometer. These measurements were performed in a buffer of 10 mM Na-phosphate, pH 7.4, 0.1 mM EDTA, and NaCl to yield an ionic strength of 10 either 0.1 M or 1.0 M. Data was analyzed by a graphic representation of 1/Tm vs ln[Ct], where [Ct] was the total oligonucleotide concentration. From this analysis the thermodynamic parameters were determined. Based upon the information gained concerning the stability of the duplex of heteroduplex formed, the placement of modified pyrimidine into oligonucleotides were assessed for their effects on helix stability.
Base-pair specificity of 2′-deoxy-2′-fluoro modified oligonucleotides with the RNA complement (a “Y” strand) was determined by effecting single base-pair mismatches and a bulge. […]

Substance	reduction of PKC-α mRNA levels (PKC-α mRNA)	inhibition of c-raf mRNA expression (c-raf mRNA)	also measured
AoAoAoAoCoGsTsCsAsGsCsCsAsTsGoGoToCoCoC (AAAACGTCAGCCATGGTCCC; listed as DNA, chemistry not fully specified) [Oligonucleotide 7273]	more active than their 2′-O-methyl counterparts	–	–
AsAoAoAoCoGsTsCsAsGsCsCsAsTsGoGoToCoCsC (AAAACGTCAGCCATGGTCCC; linkages s1 o4 s9 o4 s1 (s phosphorothioate, o phosphodiester), sugars by position and methylation of C not given here; further chemistry not fully specified) [Oligonucleotide 7008]	show reduction of PKC-α mRNA	–	–
AsAoAoAoCoGsTsCsAsGsCsCsAsTsGoGoToCoCsC (AAAACGTCAGCCATGGTCCC; listed as DNA, chemistry not fully specified) [Oligonucleotide 7294]	more active than their 2′-O-methyl counterparts	–	–
AsAsAsAsCsGsTsCsAsGsCsCsAsTsGsGsTsCsCsC (AAAACGTCAGCCATGGTCCC; 2'-O-methyl/deoxy P=S chimera, chemistry not fully specified) [Oligonucleotide 5352]	most active	–	–
AsAsAsAsCsGsTsCsAsGsCsCsAsTsGsGsTsCsCsC (dA*dA*dA*dA*dC*dG*dT*dC*dA*dG*dC*dC*dA*dT*dG*dG*dT*dC*dC*dC) [Oligonucleotide 3522]	show reduction of PKC-α mRNA	–	–
CTCGCCCGCTCCTCCTCCCC (2'-O-methyl P=S chimera, chemistry not fully specified) [ISIS 7849]	–	> 70%	–
CdCdAd CdAdCd CdGdAd CdGdGd CdGdCd CdCd [Oligonucleotide 2570, reference compound]	–	–	inhibition of ras-luciferase activity [1]: dose-dependent inhibition of ras-luciferase activity; selectivity toward the mutant form of ras-luciferase as compared to the normal form [1]: approximate threefold selectivity; inhibition of ras expression (ras mRNA): inhibited ras expression in T24 cells; also recorded: decreased ras mRNA levels in T24 cells; inhibition of ras expression / decrease of ras mRNA (ras mRNA): 82%; inhibition of ras expression [2]: did not inhibit ras expression in HeLa cells; inhibition of T24 cell proliferation relative to inhibition of HeLa cells (T24 cancer cell): four times as severe
TCCGTCATCGCTCCTCAGGG [Oligonucleotide 2503]	–	–	inhibition of ras expression (ras mRNA): inhibited ras expression in T24 cells; inhibition of ras expression / decrease of ras mRNA (ras mRNA; listed as 2503): 71%; inhibition of ras expression [2]: inhibited ras expression in HeLa cells
TCCCGCCTGTGACATGCATT (2'-O-methyl P=S chimera, 6-deoxy gap, chemistry not fully specified) [ISIS 6720]	–	greater than 70%	–
TCCCGCCTGTGACATGCATT (2'-O-methyl P=S chimera, 8-deoxy gap, chemistry not fully specified) [ISIS 6717]	–	greater than 90%	–
TCCTCCTCCCCGCGGCGGGT (2'-O-methyl P=S chimera, chemistry not fully specified) [ISIS 7848]	–	> 70%	–
TTCTCCTCCTCCCCTGGCAG (sugars from the 5' end m12 d8, all phosphorothioate, T or U not given here) [ISIS 7854]	–	> 70%	–
TTCTCGCCCGCTCCTCCTCC (2'-O-methyl P=S chimera, chemistry not fully specified) [ISIS 7856]	–	> 70%	–
TsCsTs CsGsCs TsGsGs TsGsAs GsTsTs TsC (TCTCGCTGGTGAGTTTC; all phosphorothioate, sugars by position and methylation of C not given here) [Oligonucleotide 7082]	most active in reducing PKC-α mRNA levels	–	–
TsTsCs TsCsGs CsTsGs GsTsGs AsGsTs TsTsC (TTCTCGCTGGTGAGTTTC; all phosphorothioate, sugars by position and methylation of C not given here) [Oligonucleotide 6632]	most active in reducing PKC-α mRNA levels	–	–
deoxy(CUC GUACCUUUCCGG UCC) (CUCGUACCUUUCCGGUCC; 14 2'-deoxy-2'-fluoro nucleotides, chemistry not fully specified)	–	–	specificity of duplex formation with the RNA complement [3]: greater specificity than a like-sequenced unmodified oligonucleotide
